Measured values published in paper PMC12538274, “Paltusotine versus octreotide: different effects on radioligand uptake in neuroendocrine tumours” (Endocrine Oncology, 2025).
Where two headings read alike, the source gives them in different places.

Columns and labels:
[1] = cited from earlier work
[2] = cited from earlier work; remark: listed apart in the source
Description: Paltusotine is currently being investigated in a randomised phase 2 trial in NET patients with the carcinoid syndrome (NCT05361668), with promising preliminary results ([13]), and a phase 3 trial is currently being planned ([14]). […] Recently, paltusotine received FDA approval for the treatment of patients with acromegaly ([11], [12]).

[3] = target: T1, hSSTR2 (stable hSSTR2 over-expressing BON-1 cells, BON-1 SSTR2) (Homo sapiens, UniProt P30874); experiment: 18F-SiTATE uptake assay; assay type: cell-based
T1 construct: expressed in transfected cells
T1 sequence (P30874 whole entry): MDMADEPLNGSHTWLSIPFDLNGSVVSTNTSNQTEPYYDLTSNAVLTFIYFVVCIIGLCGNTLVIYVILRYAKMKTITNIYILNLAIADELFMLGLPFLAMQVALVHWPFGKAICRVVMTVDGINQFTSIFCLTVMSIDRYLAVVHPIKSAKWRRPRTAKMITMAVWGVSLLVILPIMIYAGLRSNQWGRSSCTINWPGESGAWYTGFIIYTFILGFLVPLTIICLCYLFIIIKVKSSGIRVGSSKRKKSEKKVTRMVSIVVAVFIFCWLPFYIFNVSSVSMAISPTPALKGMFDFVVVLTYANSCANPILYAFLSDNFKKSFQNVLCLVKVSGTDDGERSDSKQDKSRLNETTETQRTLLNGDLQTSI

[4] = system: BON-1 cells (human panNET); experiment: Cell Titer Blue cell viability assay, BON-1; assay type: cell-based; conditions: 72 h, vs DMSO control
Protocol: (§1) The BON-1 (human panNET; Prof. R Göke, University of Marburg, Germany), NCI-H727 (human bronchopulmonary NET; ATCC, USA) and QGP-1 cell lines (human panNET; JCRB Cell Bank, Japan) were cultured as previously described ([15]). Moreover, a stable hSSTR2 over-expressing BON-1 cell clone (BON-1 SSTR2) was generated as previously described ([16], [17]).
(§2) GEP-NET cell lines and primary cultures were treated for 72 h with either paltusotine or octreotide, and dimethyl sulfoxide (DMSO) was used as control. Cell Titer Blue® cell viability assay (Promega, USA) was then performed as previously described ([15], [21]). Each experiment included 3–4 samples per drug concentration and patient. Cell line experiments were performed at least three times.

pituitary tumour cells = system: pituitary tumour cells; set-up: method as in PMID 36810324; conditions: compared to octreotide; cited from earlier work
[5] = system: β-arrestin recruitment (SSTR2, HEK293 cells); set-up: method as in PMID 36810324; conditions: cited from earlier work
Description: (§3) While G-protein (GP)- and arrestin (ARRB)-mediated effects are induced by full SSTR2 agonists such as octreotide ([35]), biased agonists with GP-mediated effects but diminished ARRB signalling have been reported ([35]). Arrestins play an important role in SSTR internalisation and recycling/degradation ([35]). Zhao et al. compared the molecular binding structure of octreotide and paltusotine to SSTR2 and their molecular signalling, examined β-arrestin recruitment and SSTR2 internalisation/loss of SSTR2 expression on the cell surface of HEK293 cells ([34]).

[6] = system: SSTR2 on the cell surface of HEK293 cells; set-up: method as in PMID 36810324; conditions: cited from earlier work
Description: as §3

[7] = system: forskolin-stimulated cAMP accumulation; set-up: method as in PMID 36810324; conditions: read-out: Inhibition of forskolin-stimulated cAMP accumulation, EC50; cited from earlier work
BON-1 SSTR2 cells = experiment: Cell Titer Blue cell viability assay, BON-1 SSTR2; assay type: cell-based, human; conditions: 72 h, vs DMSO control
[8] = system: NCI-H727 cells (human bronchopulmonary NET); experiment: Cell Titer Blue cell viability assay, NCI-H727; assay type: cell-based; conditions: 72 h, vs DMSO control
Protocol: as §1, §2

SSTR2 = conditions: read-out: SSTR2 binding affinity, IC50; cited from earlier work
[9] = system: patient-derived GEP-NET primary cultures; experiment: Cell Titer Blue cell viability assay, patient-derived GEP-NET primary cultures; assay type: cell-based, human; conditions: 72 h, n = 5
Description: Fresh patient-derived GEP-NET primary cultures were established from surgically-derived patient tumours as previously described ([18]). […] Eleven of these were metastatic GEP-NETs, including six […] = 2 with the carcinoid syndrome) and eight […]. The use of primary tumour tissue as part of NeoExNET was approved by the Ethics Committee of LMU Munich (project number 152-10) and by the Cantonal Ethics Committee Zurich (reference number BASEC 2017-00950). […] GEP-NET cell lines and primary cultures were treated for 72 h with either paltusotine or octreotide, and dimethyl sulfoxide (DMSO) was used as control. Cell Titer Blue® cell viability assay (Promega, USA) was then performed as previously described ([15], [21]). […] Cell line experiments were performed at least three times.

[10] = system: NET patients with the carcinoid syndrome; conditions: preliminary results, phase 2, NET patients with carcinoid syndrome; cited from earlier work
Description: A newly developed, orally-bioavailable non-peptide SSTR2 agonist, paltusotine, might simplify SSA therapy and is taken orally once daily ([10]). Paltusotine recently received FDA approval for acromegaly treatment based on data from two phase 3 trials ([…]-1 and […]-2/NCT05192382) ([11], [12]).

[11] = system: QGP-1 cells (human panNET); experiment: Cell Titer Blue cell viability assay, QGP-1; assay type: cell-based; conditions: 72 h, vs DMSO control
Protocol: as §1, §2

SSTR1/3/4/5 = system: SSTR1/3/4/5; set-up: method as in PMID 11980628; conditions: cited from earlier work
Description: However, according to current guidelines as well as the FDA/EMA labelling instructions regarding Lutathera®, SSA therapy needs to be discontinued before PRRT ([7], [8], [9]). These recommendations stem from the fact that both SSAs and PRRT target the SSTR2. […] Moreover, long-acting octreotide and prolonged-release lanreotide maintain platea ...

Compound: C[C@@H](O)[C@@H]1NC(=O)[C@H](CCCCN)NC(=O)[C@@H](Cc2c[nH]c3ccccc23)NC(=O)[C@H](Cc2ccccc2)NC(=O)[C@@H](NC(=O)[C@H](N)Cc2ccccc2)CSSC[C@@H](C(=O)N[C@H](CO)[C@@H](C)O)NC1=O [octreotide]
- Plasma concentrations ([1]; subcutaneous injections, humans): up to 4 nM

Compound: N#Cc1cccc(-c2ccc3ncc(-c4cc(F)cc(F)c4)c(N4CCC(N)CC4)c3c2)c1O [paltusotine]
- Oral bioavailability [2]: good oral bioavailability
- Effect on 18F-SiTATE radioligand uptake compared to the unblocked control ([3]; 73–254 nM (1,000×) and 146–508 nM (2,000×)): no significant effects on cellular uptake
- Effect on 18F-SiTATE radioligand uptake compared to the unblocked control ([3]; low, clinically-relevant concentrations 7.3–25.4 nM (100×)): no influence on radioligand binding compared to the unblocked control
- Effect on cell viability ([4]; BON-1, 4 nM): overall no anti-tumour effects
- Effect on cell viability ([4]; BON-1, 400 nM): slight, significant increase in viability
- Apoptotic rate (pituitary tumour cells): increased apoptotic rate compared to octreotide
- β-arrestin recruitment [5]: much lower β-arrestin recruitment
- SSTR2 internalisation/desensitisation [6]: less SSTR2 internalisation/desensitisation
- EC50 [7]: 2.08 ± 1.39 nM
- Effect on cell viability (BON-1 SSTR2 cells; BON-1 SSTR2, 4 nM): overall no anti-tumour effects
- Effect on cell viability (BON-1 SSTR2 cells; BON-1 SSTR2, 400 nM): not found
- Effect on cell viability ([8]; NCI-H727, 4 nM): overall no anti-tumour effects
- Effect on cell viability ([8]; NCI-H727, 400 nM): not found
- Plasma concentrations ([1]; in vivo): 22 to 406 nM
- IC50 (SSTR2): 0.25 nM
- Overall effect on cell viability ([9]; 100 nM): overall slight anti-tumour effects
- Overall effect on cell viability ([9]; 500 nM): overall slight anti-tumour effects
- Symptom control [10]: improved symptom control
- Tolerability [10]: good tolerability
- Effect on cell viability ([11]; QGP-1, 4 nM): overall no anti-tumour effects
- Effect on cell viability ([11]; QGP-1, 400 nM): slight, significant decrease in cell viability

Compound: lanreotide
- Binding affinity to SSTR1/3/4/5 (SSTR1/3/4/5): reduced or no binding affinity
- IC50 (SSTR2): 0.54 nM

Compound: somatostatin
- IC50 (SSTR2): 0.15 nM
